Laboratory results from US20240083903A1, “ARYL ETHER COMPOUNDS AS TEAD MODULATORS” (Merck Sharp& Dohme LLC, priority 2021, published 2024).

system: TEAD Reporter-MCF7 cell line; experiment: YAP/TEAD cellular activity assay: inhibition of TEAD-Luc activity in TEAD Reporter-MCF7 cell line; assay type: cell-based, human; conditions: Homo sapiens, MCF7, 24 h, TEAD Reporter-MCF7 cells, 24 hours incubation with compound, luciferase readout
Summary of the method: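 MCF7 cells stably carrying a TEAD-responsive firefly luciferase reporter were seeded at 10,000 cells/well, grown 20-24 h, then exposed to compounds for 24 h at 37° C. Luciferase read by ONE-Glo EX luminescence; percent inhibition and EC50 derived.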

EC50 | SMILES
2080 nM | CNS(=O)(=O)c1ccc(Oc2cc(F)cc(C(F)(F)F)c2)c(-c2cnn3c2CCC3)c1 [3-3, 3-(5,6-dihydro-4H-pyrrolo[1,2-b]pyrazol-3-yl)-4-[3-fluoro-5-(trifluoromethyl)phenoxy]-N-methylbenzene-1-sulfonamide]
261 nM | CNS(=O)(=O)c1ccc(Oc2ccc(C(F)(F)F)nc2)c(-c2cn3c(n2)CCC3)c1 [4-2, 3-(6,7-dihydro-5H-pyrrolo[1,2-a]imidazol-2-yl)-N-methyl-4-((6-(trifluoromethyl)pyridin-3-yl)oxy)benzenesulfonamide]
3270 nM | CNS(=O)(=O)c1ccc(Oc2ccc(C(F)(F)F)cc2)c(-c2cnc3cc(C)ccn23)c1 [1-25, N-methyl-3-(7-methylimidazo[1,2-a]pyridin-3-yl)-4-[4-(trifluoromethyl)phenoxy]benzene-1-sulfonamide]
14.1 nM | CNS(=O)(=O)c1ccc(Oc2ccc(Cl)cc2)c(-c2cn3c(n2)CCC3)c1 [4-12, 4-(4-chlorophenoxy)-3-(6,7-dihydro-5H-pyrrolo[1,2-a]imidazol-2-yl)-N-methylbenzene-1-sulfonamide]
210 nM | CNS(=O)(=O)c1ccc(Oc2ccc(C(F)(F)F)cc2)c(-c2ccc3scnc3c2)c1 [2-6, 3-(1,3-benzothiazol-5-yl)-N-methyl-4-[4-(trifluoromethyl)phenoxy]benzene-1-sulfonamide]
52.6 nM | CNS(=O)(=O)c1ccc(O[C@H]2CC[C@H](C(F)(F)F)CC2)c(-c2cn3c(n2)CCC3)c1 [4-1, 3-(6,7-Dihydro-5H-pyrrolo[1,2-a]imidazol-2-yl)-N-methyl-4-(((1r,4r)-4-(trifluoromethyl)cyclohexyl)oxy)benzenesulfonamide]
103 nM | CNS(=O)(=O)c1ccc(Oc2cccc(Cl)c2)c(-c2cn3c(n2)CCC3)c1 [4-5, 4-(3-chlorophenoxy)-3-(6,7-dihydro-5H-pyrrolo[1,2-a]imidazol-2-yl)-N-methylbenzene-1-sulfonamide]
618 nM | CNS(=O)(=O)c1ccc(Oc2ccc(OC(F)(F)F)cc2)c(-c2cnn3c2CCC3)c1 [3-4, 3-(5,6-dihydro-4H-pyrrolo[1,2-b]pyrazol-3-yl)-N-methyl-4-[4-(trifluoromethoxy)phenoxy]benzene-1-sulfonamide]
4.6 nM | CNS(=O)(=O)c1ccc(Oc2ccc(C(F)(F)F)cc2)c(-c2cc3n(n2)CCCC3)c1 [1-36, N-methyl-3-(4,5,6,7-tetrahydropyrazolo[1,5-a]pyridin-2-yl)-4-[4-(trifluoromethyl)phenoxy]benzene-1-sulfonamide]
2640 nM | CNS(=O)(=O)c1ccc(Oc2ccc(C(F)(F)F)cc2)c(-c2nc3c(s2)CNC3)c1 [1-14, 3-(5,6-dihydro-4H-pyrrolo[3,4-d] [1,3]thiazol-2-yl)-N-methyl-4-[4-(trifluoromethyl)phenoxy]benzene-1-sulfonamide]
238 nM | CNS(=O)(=O)c1ccc(Oc2ccc(C(F)(F)F)cc2)c(-c2nc3cccnc3s2)c1 [1-11, N-methyl-3-([1,3]thiazolo[5,4-b]pyridin-2-yl)-4-[4-(trifluoromethyl)phenoxy]benzene-1-sulfonamide]
6 nM | CNS(=O)(=O)c1ccc(Oc2ccc(C(F)(F)F)cc2)c(-c2cn3c(n2)CCC3)c1 [1-1, 3-(6,7-Dihydro-5H-pyrrolo[1,2-a]imidazol-2-yl)-N-methyl-4-(4-(trifluoromethyl)phenoxy)benzenesulfonamide]
60.6 nM | CNS(=O)(=O)c1ccc(Oc2ccc(C(F)(F)F)cc2)c(-c2cc3ncccn3n2)c1 [1-19, N-methyl-3-(pyrazolo[1,5-a]pyrimidin-2-yl)-4-[4-(trifluoromethyl)phenoxy]benzene-1-sulfonamide]
88.5 nM | CNS(=O)(=O)c1ccc(Oc2ccc(C(F)(F)F)cc2)c(-c2cn3cc(C)ccc3n2)c1 [1-34, N-methyl-3-(6-methylimidazo[1,2-a]pyridin-2-yl)-4-[4-(trifluoromethyl)phenoxy]benzene-1-sulfonamide]
106 nM | CNS(=O)(=O)c1ccc(Oc2ccc(C(F)(F)F)cc2)c(-c2cnn3c2CCC3)c1 [1-5, 3-(5,6-dihydro-4H-pyrrolo[1,2-b]pyrazol-3-yl)-N-methyl-4-[4-(trifluoromethyl)phenoxy]benzene-1-sulfonamide]
2860 nM | CNS(=O)(=O)c1ccc(Oc2ccc(C(F)(F)F)cc2)c(-c2ccc3ncn(C4CC4)c3c2)c1 [2-12, 3-(1-cyclopropyl-1H-benzimidazol-6-yl)-N-methyl-4-[4-(trifluoromethyl)phenoxy]benzene-1-sulfonamide]
4410 nM | O=S(=O)(NCC1CC1)c1ccc(Oc2ccc(C(F)(F)F)cc2)c(-c2cnn3c2CCC3)c1 [5-1, N-(Cyclopropylmethyl)-3-(5,6-dihydro-4H-pyrrolo[1,2-b]pyrazol-3-yl)-4-(4-(trifluoromethyl)phenoxy)benzenesulfonamide]
